# Measurements from paper PMC3514547 (Biochemistry, 2012).
# Values joined by “and” are separate entries in the source; they are usually repeats but may differ in a detail not shown here. Identical values can stand only once. Like-named read-outs stand apart in the source and are kept apart here.
# T1: SpPot1-DBD binding to d(GGTTACGGTTAC) (Schizosaccharomyces pombe, UniProt O13988)
# T1 sequence (O13988 1-389 limits assumed): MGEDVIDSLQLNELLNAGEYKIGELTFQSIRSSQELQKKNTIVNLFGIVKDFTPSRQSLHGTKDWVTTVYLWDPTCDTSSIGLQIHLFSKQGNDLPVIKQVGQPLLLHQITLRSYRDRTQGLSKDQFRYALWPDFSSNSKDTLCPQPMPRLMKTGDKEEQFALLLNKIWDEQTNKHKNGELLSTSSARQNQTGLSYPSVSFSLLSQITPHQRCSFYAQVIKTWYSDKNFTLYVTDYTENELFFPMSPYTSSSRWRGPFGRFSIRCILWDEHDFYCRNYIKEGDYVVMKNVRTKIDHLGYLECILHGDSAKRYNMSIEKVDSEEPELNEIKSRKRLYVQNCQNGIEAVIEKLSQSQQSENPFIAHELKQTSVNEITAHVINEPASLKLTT
# T2: Pot1pN binding to 6mer ssDNA (Schizosaccharomyces pombe, UniProt O13988)
# T2 sequence (O13988 1-187 limits assumed): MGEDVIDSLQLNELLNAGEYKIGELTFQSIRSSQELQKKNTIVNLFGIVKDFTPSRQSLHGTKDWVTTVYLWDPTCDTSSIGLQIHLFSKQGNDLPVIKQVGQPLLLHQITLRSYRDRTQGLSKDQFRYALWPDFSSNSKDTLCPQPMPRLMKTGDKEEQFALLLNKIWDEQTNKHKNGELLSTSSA
# T3: Pot1pN (Schizosaccharomyces pombe, UniProt O13988)
# T3 sequence (O13988 1-187 limits assumed): T2 sequence (O13988 1-187 limits assumed)
# T4: hPOT1-DBD binding to d(GGTTAGGGTTAG) (Homo sapiens, UniProt Q9NUX5)
# T4 sequence (Q9NUX5 1-299): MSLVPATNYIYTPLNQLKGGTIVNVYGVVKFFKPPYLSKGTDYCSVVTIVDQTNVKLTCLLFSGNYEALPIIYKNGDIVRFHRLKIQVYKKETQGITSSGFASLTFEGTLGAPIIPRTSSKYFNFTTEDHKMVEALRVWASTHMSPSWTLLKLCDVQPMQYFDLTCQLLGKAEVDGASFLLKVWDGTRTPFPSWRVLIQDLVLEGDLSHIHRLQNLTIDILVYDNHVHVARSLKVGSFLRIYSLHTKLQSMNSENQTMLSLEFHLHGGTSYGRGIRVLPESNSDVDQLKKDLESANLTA
# T5: hPOT1 (hPOT1-DBD) (human, UniProt Q9NUX5 1-299)
# T5 sequence: T4 sequence (Q9NUX5 1-299)
# T6: SpPot1-DBD (Pot1-DBD) (Schizosaccharomyces pombe, UniProt O13988 1-389)
# T6 sequence: T1 sequence (O13988 1-389 limits assumed)
# T7: Pot1pN (first OB fold of SpPot1) (Schizosaccharomyces pombe, UniProt O13988 1-187)
# T7 sequence: T2 sequence (O13988 1-187 limits assumed)
# T8: 6xHis-Pot1pN (TR-FRET) (Schizosaccharomyces pombe, UniProt O13988 1-187)
# T8 sequence: T2 sequence (O13988 1-187 limits assumed)
# Legend:
# germ cells = settings: prenatal administration during germ cell development, mice; cited from earlier work
# [1] = cited from earlier work
# [2] = test system: cell culture and animal models; settings: high doses (~ 100 μM); cited from earlier work
# [3] = biological target: T1, SpPot1-DBD binding to d(GGTTACGGTTAC); assay: Double filter-binding competition assay, SpPot1-DBD/cognate ssDNA
# [4] = biological target: T9, Pot1pN (first DNA-binding OB fold of S. pombe Pot1) (Schizosaccharomyces pombe, UniProt O13988); assay: ITC of ligand binding to Pot1pN; settings: for -TΔS / ΔH / Kd: ITC, 20 °C; for Kd: one-site binding model
# [5] = biological target: T2, Pot1pN binding to 6mer ssDNA; assay: Secondary double filter-binding assay, Pot1pN/6mer; settings: compound up to 500 μM
# Pot1pN = biological target: T3, Pot1pN; assay: Dynamic light scattering of Pot1pN/CR complex; settings: DLS, equimolar CR 300 μM
# [6] = biological target: T4, hPOT1-DBD binding to d(GGTTAGGGTTAG); assay: Double filter-binding competition assay, hPOT1-DBD/telomeric ssDNA
# CR solubility at NMR pH = type: physicochemical
# amyloidosis phenotypes = settings: low doses (≤ 10 μM); cited from earlier work
# [7] = biological target: T9, Pot1pN (first DNA-binding OB fold of S. pombe Pot1); settings: read-out: KD of Pot1pN/6mer interaction; cognate ssDNA ligand; cited from earlier work
# hPOT1 (hPOT1-DBD) = biological target: T5, hPOT1 (hPOT1-DBD); assay: double-filter binding
# SpPot1-DBD (Pot1-DBD) = biological target: T6, SpPot1-DBD (Pot1-DBD); assay: double-filter binding
# [8] = biological target: T7, Pot1pN (first OB fold of SpPot1); assay: double-filter binding
# 6xHis-Pot1pN (TR-FRET) = biological target: T8, 6xHis-Pot1pN (TR-FRET); assay: TR-FRET
molecule,measurement,setting,value
"Nc1c(/N=N/c2ccc(-c3ccc(/N=N/c4cc(S(=O)(=O)O)c5ccccc5c4N)cc3)cc2)cc(S(=O)(=O)O)c2ccccc12 [CR, Congo red]",effect on germ cell number,germ cells,drastic and permanent reduction in germ cell number
same,aggregation point,[1],50 µM
same,toxicity,[2],toxic
same,IC50,[3],112000 ± 9000 nM
same,binding stoichiometry (n),"[4]; ITC forward titration, one-site model",1.07 ± 0.02
same,-TΔS,[4],1.4 ± 0.2 kcal/mol
same,ΔH,[4],-9.7 ± 0.2 kcal/mol
same,Kd,[4],700 ± 10 nM
same,inhibition of Pot1pN binding to 6mer,[5],functionally inhibited Pot1pN binding to 6mer
same,calculated radius of Pot1pN/CR species,Pot1pN,3.8 nm
same,calculated MW of Pot1pN/CR species,Pot1pN; consistent with 3:3 trimer complex,77 kDa
same,IC50,[6],130000 ± 17000 nM
same,solubility behaviour at pH 6.15,CR solubility at NMR pH,precipitates from solution
same,effect on amyloidosis phenotypes and cell survival,amyloidosis phenotypes,rescue amyloidosis phenotypes and prolong cell survival
"Cc1cc(-c2ccc(/N=N/c3c(S(=O)(=O)O)cc4cc(S(=O)(=O)O)cc(N)c4c3O)c(C)c2)ccc1/N=N/c1c(S(=O)(=O)O)cc2cc(S(=O)(=O)O)cc(N)c2c1O [TB, Trypan blue]",-TΔS,[4],5.7 ± 0.02 kcal/mol
same,ΔH,[4],-13.6 ± 0.004 kcal/mol
same,Kd,[4],1210 nM and 1200 nM
Cc1ccc2c(c1)sc(-c1ccc(N(C)C)cc1)[n+]2C [Thioflavin T],binding to Pot1pN by ITC,"[4]; 2 mM Thioflavin T titrated into Pot1pN, single replicate",no detectable binding
same,inhibition of Pot1pN binding to 6mer,[5],no effect
d(GGTTAC) [6mer],Kd,[7],30 nM
GGTTAGGGTTAG (ssDNA) [d(GGTTAGGGTTAG)],binding result,hPOT1 (hPOT1-DBD),binds
GGTTACGGTTAC (ssDNA) [d(GGTTACGGTTAC)],binding result,SpPot1-DBD (Pot1-DBD),binds
GGTTAC (ssDNA) [6mer],binding result,[8],binds
"TAAGGTTAC (ssDNA, 5' biotin (printed as biotin-conjugated threonine), 3-nt TAA linker) [biotin-d(TAAGGTTAC)]",binding result,6xHis-Pot1pN (TR-FRET),binds
